{"source": "patent US8314140B2", "about": "“4-hydroxythiobenzamide derivatives of drugs” (Antibe Therapeutics Inc., priority 2006, dated 2012)", "system": "TNBS-induced colitis", "assay": "TNBS-induced colitis in mice (disease activity score, MPO activity)", "format": "in vivo", "details": "oral 100 mg/kg every 12 h for 5 days", "method": "A standard experimental animal model of colitis induced by intracolonic administration of 2,4,6-trinitrobenzene sulfonic acid (TNBS) to mice is used in the following example. A detailed description of this model has been published (Santucci et al. (2003) Gastroenterology 124:1381-94) and is incorporated herein by reference. Briefly, 6-8 week old Balb/c mice were given TNBS intracolonically at a dose of 1.5 mg in 0.1 mL of 30% ethanol. The mice were randomized to the various treatment groups (n=6 per group). Beginning one hour later and continuing every 12 h for 5 days, the mice were treated orally with vehicle (1% carboxymethylcellulose (CMC)), 5-ASA (mesalamine) alone (100 mg/kg), 4-hydroxythiobenzamide (referred to in the Figures as 4-HTB) (100 mg/kg), 5-amino-2-(4-thiocarbamoyl-phenoxycarbonyloxy)-benzoic acid (100 mg/kg) (referred to hereinafter as Compound XXVII) and equimolar doses of mesalamine (50 mg/kg) and (4-HTB) (50 mg/kg). *p<0.05 versus the vehicle-treated group. Each group consisted of at least 5 rats.\nThe mice were evaluated (blindly) on the final day of the study for the presence of diarrhea and fecal occult blood, and their body weights were measured. […] After sacrifice, a sample of the colon was excised for measurement of myeloperoxidase (MPO) activity, as a marker of granulocyte infiltration. All results were compared to those obtained with healthy mice as well.", "data": [{"substance": "5-amino-2-(4-thiocarbamoyl-phenoxycarbonyloxy)-benzoic acid [Compound XXVII]", "values": [{"measurement": "Disease Activity Score", "setting": "FIG. 1", "value": "almost three times as effective"}, {"measurement": "myeloperoxidase (MPO) activity (granulocyte infiltration)", "setting": "colon sample, FIG. 2", "value": "significantly reduced inflammation"}]}]}
